Tested on: HepaRG cells
Test: PXR protein expression in HepaRG cells
Type: cell-based
Conditions: 24 h, 1 to 25 μM, compared with HepG2
Procedure: HepG2 (human hepatoma cell line; ATCC HB-8065, Manassas, VA) and HepaRG (HPRGC10, Thermo Fisher Scientific) cells were maintained in culture as previously described.[47] Experiments were performed between passages 2 and 10. Cell viability, clonogenic activity, and apoptotic cell death were assessed as previously described (see Figure S2).[58],[59] HT29 human colorectal adenocarcinoma cells (ATCC HTB-38) and its mucous-secreting HT29-MTX subclone (Sigma-Aldrich) were used as intestinal cell models. HT29 cells were cultured in RPMI (Invitrogen; Life Technologies) containing 10% FBS (v/v) and 1% (v/v) L-glutamine. HT29-MTX cells (from Sigma-Aldrich) were cultured in DMEM supplemented with 2 mM glutamine, 1% nonessential amino acids, and 10% FBS. […]
Cells were harvested and lysed in ice-cold cell lysis buffer (Cell Signaling Technology) and 20 μL/mL protease inhibitor cocktail (Roche). […] After incubation in ice for 1 h and centrifugation (12 000 rpm for 20 min at 4 °C), the supernatant was recovered, and total proteins were quantified by the BCA assay kit (Pierce, Thermo Fisher Scientific). […] The band intensity was analyzed using Gel Pro analyzer Software. […]
PXR protein was assessed by immunoblot (10 µg total protein loading) in HepaRG cells treated for 24 hrs with GA at concentrations between 1 and 25 μM (A). […]

`C/C(=C\CC/C(C)=C/CC[C@]1(C)CCc2cc(O)cc(C)c2O1)CC/C=C(\C)C(=O)O` [GA (1), (2E,6E,10E)-13-[(2R)-6-hydroxy-2,8-dimethyl-chroman-2-yl]-2,6,10-trimethyltrideca-2,6,10-trienoic acid] was tested, and the PXR protein response was “Even higher”.

From article PMC7901650, “Garcinoic Acid Is a Natural and Selective Agonist of Pregnane X Receptor” (Journal of Medicinal Chemistry, 2020)
